Measurements: PubChem BioAssay AID1963849 (Molecular Pharmacology Branch, DTP, NCI, 2024)

System: 299254-011-R-J1-PDC complex spheroid viability
Test: Anticancer human tumor 299254-011-R-J1-PDC patient-derived melanoma cell line growth inhibition [POLQ]
Details: for IC50: curve of first compound; for viability, T/C: stronger effect = lower value
Outline: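 Patient-derived tumour cells were co-cultured with HUVEC and mesenchymal stem cells as multicellular spheroids at 37 °C. They were treated with POLQ inhibitors (novobiocin, ART-558, RP6685) alone or combined with other agents. Top concentrations were at or near clinical Cmax (otherwise 10 microM; SN-38 at 1 microM), decreasing in half-log steps.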

[1] = second compound 0.0316 µM, first compound 0.00316 µM
[2] = second compound 0.0316 µM, first compound 0.01 µM
[3] = second compound 0.0316 µM, first compound 0.0316 µM
[4] = second compound 0.0316 µM, first compound 0.1 µM
[5] = second compound 0.1 µM, first compound 0.00316 µM
[6] = second compound 0.1 µM, first compound 0.01 µM
[7] = second compound 0.1 µM, first compound 0.0316 µM
[8] = second compound 0.1 µM, first compound 0.1 µM
[9] = second compound 0.316 µM, first compound 0.00316 µM
[10] = second compound 0.316 µM, first compound 0.01 µM
[11] = second compound 0.316 µM, first compound 0.0316 µM
[12] = second compound 0.316 µM, first compound 0.1 µM
[13] = second compound 1 µM, first compound 0.00316 µM
[14] = second compound 1 µM, first compound 0.01 µM
[15] = second compound 1 µM, first compound 0.0316 µM
[16] = second compound 1 µM, first compound 0.1 µM
[17] = second compound 3.16 µM, first compound 0.00316 µM
[18] = second compound 3.16 µM, first compound 0.01 µM
[19] = second compound 3.16 µM, first compound 0.0316 µM
[20] = second compound 3.16 µM, first compound 0.1 µM
[21] = second compound 10 µM, first compound 0.00316 µM
[22] = second compound 10 µM, first compound 0.01 µM
[23] = second compound 10 µM, first compound 0.0316 µM
[24] = second compound 10 µM, first compound 0.1 µM
[25] = second compound 0.0316 µM, first compound 0.316 µM
[26] = second compound 0.0316 µM, first compound 1 µM
[27] = second compound 0.1 µM, first compound 0.316 µM
[28] = second compound 0.1 µM, first compound 1 µM
[29] = second compound 0.316 µM, first compound 0.316 µM
[30] = second compound 0.316 µM, first compound 1 µM
[31] = second compound 1 µM, first compound 0.316 µM
[32] = second compound 1 µM, first compound 1 µM
[33] = second compound 3.16 µM, first compound 0.316 µM
[34] = second compound 3.16 µM, first compound 1 µM
[35] = second compound 10 µM, first compound 0.316 µM
[36] = second compound 10 µM, first compound 1 µM
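Also: spheroids exposed to drugs for one week before measurement.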
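For viability, T/C in this document: percent viability relative to DMSO vehicle control taken as 100%.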

CC[C@@]1(O)C(=O)OCc2c1cc1n(c2=O)Cc2cc3c(CN(C)C)c(O)ccc3nc2-1 + COC1C(OC(N)=O)C(O)C(Oc2ccc3c(O)c(NC(=O)c4ccc(O)c(CC=C(C)C)c4)c(=O)oc3c2C)OC1(C)C
IC50 (second compound 0.0316 µM): > 100 nM
IC50 (second compound 0.1 µM): > 100 nM
IC50 (second compound 0.316 µM): > 100 nM
IC50 (second compound 1 µM): > 100 nM
IC50 (second compound 3.16 µM): > 100 nM
IC50 (second compound 10 µM): > 100 nM
viability, T/C (second compound 0.0316 µM, first compound 0.000316 µM): 104%
viability, T/C (second compound 0.0316 µM, first compound 0.001 µM): 95.4%
viability, T/C [1]: 123%
viability, T/C [2]: 101%
viability, T/C [3]: 112%
viability, T/C [4]: 76%
viability, T/C (second compound 0.1 µM, first compound 0.000316 µM): 111%
viability, T/C (second compound 0.1 µM, first compound 0.001 µM): 105%
viability, T/C [5]: 107%
viability, T/C [6]: 110%
viability, T/C [7]: 114%
viability, T/C [8]: 83.5%
viability, T/C (second compound 0.316 µM, first compound 0.000316 µM): 102%
viability, T/C (second compound 0.316 µM, first compound 0.001 µM): 120%
viability, T/C [9]: 103%
viability, T/C [10]: 102%
viability, T/C [11]: 120%
viability, T/C [12]: 74.5%
viability, T/C (second compound 1 µM, first compound 0.000316 µM): 104%
viability, T/C (second compound 1 µM, first compound 0.001 µM): 106%
viability, T/C [13]: 111%
viability, T/C [14]: 110%
viability, T/C [15]: 110%
viability, T/C [16]: 67.6%
viability, T/C (second compound 3.16 µM, first compound 0.000316 µM): 115%
viability, T/C (second compound 3.16 µM, first compound 0.001 µM): 104%
viability, T/C [17]: 93.6%
viability, T/C [18]: 105%
viability, T/C [19]: 105%
viability, T/C [20]: 84.6%
viability, T/C (second compound 10 µM, first compound 0.000316 µM): 112%
viability, T/C (second compound 10 µM, first compound 0.001 µM): 111%
viability, T/C [21]: 112%
viability, T/C [22]: 102%
viability, T/C [23]: 110%
viability, T/C [24]: 87.1%

CNCc1ccc(-c2[nH]c3cc(F)cc4c3c2CCNC4=O)cc1 + COC1C(OC(N)=O)C(O)C(Oc2ccc3c(O)c(NC(=O)c4ccc(O)c(CC=C(C)C)c4)c(=O)oc3c2C)OC1(C)C
IC50 (second compound 0.0316 µM): > 10000 nM
IC50 (second compound 0.1 µM): > 10000 nM
IC50 (second compound 0.316 µM): > 10000 nM
IC50 (second compound 1 µM): > 10000 nM
IC50 (second compound 3.16 µM): > 10000 nM
IC50 (second compound 10 µM): > 10000 nM
viability, T/C [3]: 99.5%
viability, T/C [4]: 98.7%
viability, T/C [25]: 102%
viability, T/C [26]: 117%
viability, T/C (second compound 0.0316 µM, first compound 3.16 µM): 114%
viability, T/C (second compound 0.0316 µM, first compound 10 µM): 103%
viability, T/C [7]: 114%
viability, T/C [8]: 106%
viability, T/C [27]: 102%
viability, T/C [28]: 107%
viability, T/C (second compound 0.1 µM, first compound 3.16 µM): 118%
viability, T/C (second compound 0.1 µM, first compound 10 µM): 133%
viability, T/C [11]: 91.6%
viability, T/C [12]: 94.9%
viability, T/C [29]: 98.7%
viability, T/C [30]: 105%
viability, T/C (second compound 0.316 µM, first compound 3.16 µM): 97.2%
viability, T/C (second compound 0.316 µM, first compound 10 µM): 116%
viability, T/C [15]: 91.8%
viability, T/C [16]: 105%
viability, T/C [31]: 105%
viability, T/C [32]: 117%
viability, T/C (second compound 1 µM, first compound 3.16 µM): 117%
viability, T/C (second compound 1 µM, first compound 10 µM): 115%
viability, T/C [19]: 113%
viability, T/C [20]: 90.9%
viability, T/C [33]: 95.4%
viability, T/C [34]: 118%
viability, T/C (second compound 3.16 µM, first compound 3.16 µM): 105%
viability, T/C (second compound 3.16 µM, first compound 10 µM): 111%
viability, T/C [23]: 113%
viability, T/C [24]: 104%
viability, T/C [35]: 111%
viability, T/C [36]: 106%
viability, T/C (second compound 10 µM, first compound 3.16 µM): 96.3%
viability, T/C (second compound 10 µM, first compound 10 µM): 100%

COc1cccc(OCCCN)c1-c1cc(Nc2cnc(C#N)cn2)n[nH]1 + COC1C(OC(N)=O)C(O)C(Oc2ccc3c(O)c(NC(=O)c4ccc(O)c(CC=C(C)C)c4)c(=O)oc3c2C)OC1(C)C
IC50 (second compound 0.0316 µM): 65.1 nM
IC50 (second compound 0.1 µM): 119 nM
IC50 (second compound 0.316 µM): 111 nM
IC50 (second compound 1 µM): 206 nM
IC50 (second compound 3.16 µM): 84.5 nM
IC50 (second compound 10 µM): 126 nM
viability, T/C [1]: 99.5%
viability, T/C [2]: 94.9%
viability, T/C [3]: 58.7%
viability, T/C [4]: 49.6%
viability, T/C [25]: 41.6%
viability, T/C [26]: 38.1%
viability, T/C [5]: 94.2%
viability, T/C [6]: 98.6%
viability, T/C [7]: 72%
viability, T/C [8]: 53.9%
viability, T/C [27]: 41.1%
viability, T/C [28]: 38%
viability, T/C [9]: 105%
viability, T/C [10]: 102%
viability, T/C [11]: 74.5%
viability, T/C [12]: 52.4%
viability, T/C [29]: 42.1%
viability, T/C [30]: 39.6%
viability, T/C [13]: 114%
viability, T/C [14]: 89.2%
viability, T/C [15]: 74.2%
viability, T/C [16]: 56.8%
viability, T/C [31]: 43.8%
viability, T/C [32]: 39.9%
viability, T/C [17]: 99.5%
viability, T/C [18]: 105%
viability, T/C [19]: 65.7%
viability, T/C [20]: 55.1%
viability, T/C [33]: 38.3%
viability, T/C [34]: 48.6%
viability, T/C [21]: 105%
viability, T/C [22]: 104%
viability, T/C [23]: 67.7%
viability, T/C [24]: 56.9%
viability, T/C [35]: 49%
viability, T/C [36]: 40%
